From patent publication US12421254B2, “KRAS modulators and uses thereof” (Quanta Therapeutics, Inc., priority 2023, dated 2025)

Experiments:
[1] = target: GST-tagged KRAS-G12D (2-169) (Homo sapiens, UniProt P01116, G12D); assay: Nucleotide exchange assay (NEA), SOS-mediated, HTRF, KRAS G12D; assay type: biochemical; conditions: Table 4; IC50 extracted at 30 min; 20 nM SOScat; read-out: NEA G12D IC50
Outline: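 SOS1cat-driven loading of fluorescent GTP-DY-647P1 (150 nM) onto GST-KRAS-G12D (2-169, 0.25 nM) read by time-resolved FRET; SOScat 20 nM, compound preincubated with KRAS 1 h at RT. Signal blanked to no-SOS reactions, normalized to DMSO; IC50 fitted from the 30-min read.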

[2] = target: GST-tagged KRAS-G12V (2-169) (Homo sapiens, UniProt P01116, G12V); assay: Nucleotide exchange assay (NEA), SOS-mediated, HTRF, KRAS G12V; assay type: biochemical; conditions: Table 4; IC50 extracted at 90 min; 80 nM SOS
Outline: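 Exchange onto fluorescent GTP-DY-647P1 (150 nM final) catalysed by 80 nM SOS1cat was followed by Tb-anti-GST HTRF at RT for up to 90 min, after 1 h compound pre-incubation with 0.25 nM GST-tagged KRAS-G12V (2-169), pH 7.3. DMSO = 0%, no-SOS blank = 100%; 4-parameter IC50 taken at 90 min.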

[3] = tested on: phospho-ERK in GP2D (KRAS-G12D) cells; assay: pERK In Cell Western (ICW) assay (Method B), GP2D; assay type: cell-based; conditions: GP2d, 3 h, Table 4
Experimental: (§1) pERK ICW is a high throughput screening assay to evaluate the cellular potency of mutant KRAS small molecule inhibitors. KRAS mutant cell lines AGS, GP2D (KRAS-G12D) as well as SW620 (KRAS-G12V) were purchased from ATCC and maintained respectively in RPMI/DMEM/RPMI medium supplemented with 10% fetal bovine serum.
(§2) Cells grown in exponential phase were trypsinized, resuspended in fresh media, and viable cells were counted using a cell counter with Trypan Blue (BioRad TC20). Cells were seeded into 384-well plate (Greiner 781091) at density of 5,000 cells/well for AGS and 10,000 cells/well for GP2D/SW620 and allowed to grow overnight in a 37° C. CO2 incubator. The next day, compounds were dispensed into wells with a ½ log, 9-point serial dilution using a Tecan D300e dispenser and incubated for 3 hours in a 37° C. CO2 incubator. Cells were then fixed with paraformaldehyde (Electron Microscopy Sciences, 15710, 4% final concentration) for 30 min, permeabilized with wash buffer (1×PBS+0.1% Triton X-100) for 30 min and blocked with Odyssey blocking buffer (Li—COR 927-70001) for 1 hour, all at room temperature (RT). Phospho-ERK antibody (CST 4370L) was diluted 1:500 in Odyssey T20 (PBS) antibody diluent (Li—COR 927-75001) and incubated with cells overnight at 4° C. The next day, plates were washed 5× with wash buffer, incubated with IRDye 800 CW, Goat anti-Rabbit secondary antibody (Li—COR 926-32211, 1:800) and DRAQ5 (CST 4084L, 1:5,000) diluted in Odyssey T20 (PBS) antibody diluent for 1 hour, washed 5×, and imaged on an Odyssey CLx imaging system.
(§3) For data analysis, signal intensities from 800 (phosphor-ERK) and 700 (DRAQ5) channels were extracted, and phospho-ERK signals were normalized to DRAQ5 signals for each well and percent of blank control values were computed. Data were then imported into Graphpad Prism to compute half-maximal inhibitory concentrations (IC50) using a 4-parameter variable slope model. Z-factor for each plate was computed from signals derived from wells treated with either DMSO or 5 μM of control compound. AGS pERK ICW (Method B) IC50 (uM) values of selected compounds are depicted in Table 2 with compounds having a value ≥0.001 uM to 0.01 uM as ++++; ≥0.01 uM to 0.1 uM as +++; ≥0.1 uM to 1 uM as ++; ≥1 uM to 10 uM as + and ≥10 uM as NA.

[4] = tested on: phospho-ERK in SW620 (KRAS-G12V) cells; assay: pERK In Cell Western (ICW) assay (Method B), SW620; assay type: cell-based; conditions: Homo sapiens, SW-620, 3 h, Table 4
Experimental: as §1, §2, §3

Sequence of GST-tagged KRAS-G12V (2-169) (P01116 2-169 isoform P01116-2 G12V): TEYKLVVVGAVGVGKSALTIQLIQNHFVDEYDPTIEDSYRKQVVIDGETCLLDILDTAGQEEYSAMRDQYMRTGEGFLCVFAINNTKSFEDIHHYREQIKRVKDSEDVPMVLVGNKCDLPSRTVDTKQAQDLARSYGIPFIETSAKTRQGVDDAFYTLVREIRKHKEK
Sequence of GST-tagged KRAS-G12D (2-169) (P01116 2-169 isoform P01116-2 G12D): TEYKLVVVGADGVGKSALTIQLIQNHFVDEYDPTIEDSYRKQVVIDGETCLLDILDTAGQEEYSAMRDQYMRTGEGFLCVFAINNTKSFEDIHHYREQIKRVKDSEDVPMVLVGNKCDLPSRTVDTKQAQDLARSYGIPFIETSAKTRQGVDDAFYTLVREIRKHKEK

Compound	IC50 [1] [nM]	IC50 [2] [nM]	IC50 [3] [nM]	IC50 [4] [nM]
N#CNC1CCCN(c2nc(OC[C@@]34CCCN3C[C@H](F)C4)nc(N3CC4(CCc5sc(N)c(C#N)c54)C3)n2)C1 (stereo partly drawn) [Compound 33, [1-[4-(2-amino-3-cyano-spiro[5,6-dihydrocyclopenta[b]thiophene-4,3′-azetidine]-1′-yl)-6-[[(2R,8S)-2-fluoro-1,2,3,5,6,7-hexahydropyrrolizin-8-yl]methoxy]-1,3,5-triazin-2-yl]-3-piperidyl]cyanamide]	10 to 100	< 10	100 to 1000	
N#Cc1c(N)sc2c1C1(CC2)CN(c2nc(OC[C@@]34CCCN3C[C@H](F)C4)nc(N3C[C@H](O)C[C@@H](O)C3)n2)C1 [Compound 26, 2-amino-1′-[4-[(3R,5R)-3,5-dihydroxy-1-piperidyl]-6-[[(2R,8S)-2-fluoro-1,2,3,5,6,7-hexahydropyrrolizin-8-yl]methoxy]-1,3,5-triazin-2-yl]spiro[5,6-dihydrocyclopenta[b]thiophene-4,3′-azetidine]-3-carbonitrile]	10 to 100	10 to 100	≥ 20000	
CCN(c1nc(OC[C@@]23CCCN2C[C@H](F)C3)nc(N2CC3(C2)SCc2sc(N)c(C#N)c23)n1)[C@H](C)C#N [Compound 236, 2-amino-1′-[4-[[(1R)-1-cyanoethyl]-ethyl-amino]-6-[[(2R,8S)-2-fluoro-1,2,3,5,6,7-hexahydropyrrolizin-8-yl]methoxy]-1,3,5-triazin-2-yl]spiro[6H-thieno[3,4-b]thiophene-4,3′-azetidine]-3-carbonitrile; formic acid]	< 10	< 10		10 to 100
C[C@H](c1cccnc1N)N(CC#N)c1nc(OC[C@@]23CCCN2C[C@H](F)C3)nc(N2CC3(C2)SCc2sc(N)c(C#N)c23)n1 [Compound 246, 2′-amino-1-(4-(((R)-1-(2-aminopyridin-3-yl)ethyl)(cyanomethyl)amino)-6-(((2R,7aS)-2-fluorotetrahydro-TH-pyrrolizin-7a(5H)-yl)methoxy)-1,3,5-triazin-2-yl)-6′H-spiro[azetidine-3,4′-thieno[3,4-b]thiophene]-3′-carbonitrile]	< 10	< 10		< 10
C#CC(C)N(CC#N)c1nc(OC[C@@]23CCCN2C[C@H](F)C3)nc(N2CC3(C2)SCc2sc(N)c(C#N)c23)n1 (stereo partly drawn) [Compound 244, 2-amino-1′-[4-[cyanomethyl(1-methylprop-2-ynyl)amino]-6-[[(2R,8S)-2-fluoro-1,2,3,5,6,7-hexahydropyrrolizin-8-yl]methoxy]-1,3,5-triazin-2-yl]spiro[6H-thieno[3,4-b]thiophene-4,3′-azetidine]-3-carbonitrile]	< 10	< 10		100 to 1000
N#Cc1c(N)sc2c1C1(CN(c3nc(OC[C@@]45CCCN4C[C@H](F)C5)nc(N(CCO)C4(C#N)CC4)n3)C1)SC2 (racemic) [Compound 240, 2-amino-1′-[4-[(1-cyanocyclopropyl)-(2-hydroxyethyl)amino]-6-[[rac-(2R,8S)-2-fluoro-1,2,3,5,6,7-hexahydropyrrolizin-8-yl]methoxy]-1,3,5-triazin-2-yl]spiro[6H-thieno[3,4-b]thiophene-4,3′-azetidine]-3-carbonitrile]	< 10	< 10		10 to 100
CCN(CC1(C#N)CC1)c1nc(OC[C@@]23CCCN2C[C@H](F)C3)nc(N2CC3(C2)SCc2sc(N)c(C#N)c23)n1 [Compound 241, 2-amino-1′-[4-[(1-cyanocyclopropyl)methyl-ethyl-amino]-6-[[(2R,8S)-2-fluoro-1,2,3,5,6,7-hexahydropyrrolizin-8-yl]methoxy]-1,3,5-triazin-2-yl]spiro[6H-thieno[2,3-c]thiophene-4,3′-azetidine]-3-carbonitrile]	< 10	< 10		100 to 1000
CC1(O)CCCN(c2nc(OCC34CCCN3C(COc3cc(C(F)(F)F)ncn3)CC4)nc(N3CC4(C3)SCc3sc(N)c(C#N)c34)n2)C1 (single isomer, unassigned) [Compound 256A]	< 10	< 10		100 to 1000
C#CCN(c1nc(OC[C@@]23CCCN2C[C@H](F)C3)nc(N2CC3(C2)SCc2sc(N)c(C#N)c23)n1)C1(C#N)CC1 [Compound 247, 2-amino-1′-[4-[(1-cyanocyclopropyl)-prop-2-ynyl-amino]-6-[[(2R,8S)-2-fluoro-1,2,3,5,6,7-hexahydropyrrolizin-8-yl]methoxy]-1,3,5-triazin-2-yl]spiro[6H-thieno[3,4-b]thiophene-4,3′-azetidine]-3-carbonitrile]	< 10	< 10		100 to 1000
N#CCN(c1nc(OC[C@@]23CCCN2C[C@H](F)C3)nc(N2CC3(C2)SCc2sc(N)c(C#N)c23)n1)C1(C#N)CC1 [Compound 251, 2-amino-1′-[4-[(1-cyanocyclopropyl)-(cyanomethyl)amino]-6-[[(2R,8S)-2-fluoro-1,2,3,5,6,7-hexahydropyrrolizin-8-yl]methoxy]-1,3,5-triazin-2-yl]spiro[6H-thieno[3,4-b]thiophene-4,3′-azetidine]-3-carbonitrile]	< 10	< 10		10 to 100
N#CCN(CC(F)F)c1nc(OC[C@@]23CCCN2C[C@H](F)C3)nc(N2CC3(C2)SCc2sc(N)c(C#N)c23)n1 [Compound 242, 2-amino-1′-[4-[cyanomethyl(2,2-difluoroethyl)amino]-6-[[(2R,8S)-2-fluoro-1,2,3,5,6,7-hexahydropyrrolizin-8-yl]methoxy]-1,3,5-triazin-2-yl]spiro[6H-thieno[3,4-b]thiophene-4,3′-azetidine]-3-carbonitrile]	< 10	< 10		10 to 100
CCN(c1nc(OC[C@@]23CCCN2C[C@H](F)C3)nc(N2CC3(C2)SCc2sc(N)c(C#N)c23)n1)C1(C#N)CC1 [Compound 238, 2-amino-1′-[4-[(1-cyanocyclopropyl)-ethyl-amino]-6-[[(2R,8S)-2-fluoro-1,2,3,5,6,7-hexahydropyrrolizin-8-yl]methoxy]-1,3,5-triazin-2-yl]spiro[6H-thieno[3,4-b]thiophene-4,3′-azetidine]-3-carbonitrile]	< 10	< 10		10 to 100
C[C@H](c1cccnc1N)N(C)c1nc(OC[C@@]23CCCN2C[C@H](F)C3)nc(N2CCC(c3c(Cl)sc(N)c3C#N)C2)n1 (stereo partly drawn) [Compound 191, 2-amino-4-[1-[4-[[(1R)-1-(2-amino-3-pyridyl)ethyl]-methyl-amino]-6-[[(2R,8S)-2-fluoro-1,2,3,5,6,7-hexahydropyrrolizin-8-yl]methoxy]-1,3,5-triazin-2-yl]pyrrolidin-3-yl]-5-chloro-thiophene-3-carbonitrile]	10 to 100	< 10		10 to 100
N#Cc1c(N)sc2c1C1(CN(c3nc(OC[C@@]45CCCN4C[C@H](F)C5)nc(N4CC(O)NC(=O)C45CC5)n3)C1)SC2 (stereo partly drawn) [Compound 255, 2-amino-1′-[4-[[(2R,8S)-2-fluoro-1,2,3,5,6,7-hexahydropyrrolizin-8-yl]methoxy]-6-(6-hydroxy-8-oxo-4,7-diazaspiro[2.5]octan-4-yl)-1,3,5-triazin-2-yl]spiro[6H-thieno[3,4-b]thiophene-4,3′-azetidine]-3-carbonitrile]	< 10	< 10		1000 to 20000
